Laboratory results from US7074784B2, “Medicaments against viral diseases” (priority 2000, dated 2006).

Columns and labels:
[1] = system: hepatitis B virus; assay: Antiviral action on hepatitis B virus in HepG2.2.15 cells (HBV DNA dot-blot hybridization); assay type: cell-based; settings: 192 h, 8 days treatment, intra- or extracellular hepatitis B-specific DNA band reduced by 50% compared with untreated sample
Description: The antiviral action of the compounds of the invention on hepatitis B virus was investigated by methods based on those described by M. A. Sells et al., Proc. Natl. Acad. Sci. 84, 1005–1009 (1987) and B. E. Korba et al., Antiviral Research 19, 55–70 (1992).
The antiviral tests were carried out in 96-well microtiter plates. The first vertical row of the plate received only growth medium and HepG2.2.15 cells. It served as virus control.
Stock solutions of the test compounds (50 mM) were initially dissolved in DMSO, and further dilutions were prepared in the HepG2.2.15 growth medium. The compounds according to the invention were usually pipetted in a test concentration of 100 μM (1st test concentration) in each case into the second vertical test row of the microtiter plate and subsequently diluted in twofold steps 2^10 times in growth medium plus 2% by weight of fetal calf serum (volume 25 μl).
Each well of the microtiter plate then contained 225 μl of HepG2.2.15 cell suspension (5×10^4 cells/ml) in growth medium plus 2% by weight of fetal calf serum. The test mixture was incubated at 37° C. and 5% CO2 (v/v) for 4 days.
The supernatant was then aspirated off and discarded, and the wells received 225 μl of freshly prepared growth medium. The compounds according to the invention were each added anew as 10-fold concentrated solution in a volume of 25 μl. The mixtures were incubated for a further 4 days.
The supernatant and/or cells were then harvested and sucked by means of a vacuum onto 96-well dot-blot chambers covered with a nylon membrane (in accordance with the manufacturer's information).
After the supernatants or lysed cells had been transferred to the nylon membrane of the blot apparatus (see above), the intra- or extracellular supernatants of the HepG2.2.15 cells were denatured (1.5 M NaCl/0.5 N NaOH), neutralized (3 M NaCl/0.5 M Tris HCl, pH 7.5) and washed (2×SSC). The DNA was then baked onto the membrane by incubating the filters at 120° C. for 2–4 hours.
Detection of the viral DNA from the treated HepG2.2.15 cells on the nylon filters was usually carried out with nonradioactive, digoxigenin-labeled hepatitis B-specific DNA probes, each of which was labeled with digoxigenin, purified and employed for the hybridization in accordance with the manufacturer's information.
The prehybridization and hybridization took place in 5×SSC, 1× blocking reagent, 0.1% by weight N-lauroylsarcosine, 0.02% by weight SDS and 100 μg of herring sperm DNA. The prehybridization took place at 60° C. for 30 minutes, and the specific hybridization with 20 to 40 ng/ml of the digoxigenized, denatured HBV-specific DNA (14 hours, 60° C.). The filters were then washed.
The immunological detection of the digoxigenin-labeled DNA took place in accordance with the manufacturer's information:
The filters were washed and prehybridized in a blocking reagent (in accordance with the manufacturer's information). Hybridization was then carried out with an anti-DIG antibody coupled to alkaline phosphatase for 30 minutes. After a washing step, the substrate of alkaline phosphatase, CSPD, was added, incubated with the filters for 5 minutes, then packed in plastic film and incubated at 37° C. for a further 15 minutes. The chemiluminescence of the hepatitis B-specific DNA signals was visualized by exposing the filters to an X-ray film (incubation depending on signal strength: 10 minutes to 2 hours).
The half-maximum inhibitory concentration (IC50, 50% inhibitory concentration) was determined as the concentration at which the intra- or extracellular hepatitis B-specific band was reduced by the compound according to the invention by 50% compared with an untreated sample.

[2] = system: HepG2.2.15 cells; assay: Cytotoxicity determination in HepG2.2.15 cells; assay type: cell-based; settings: 50% of the cells show a morphology comparable to the cell control
Excerpt: Before harvesting the supernatants to determine the antiviral effect, the HepG2.2.15 cells were examined under the light microscope or by means of biochemical detection methods (for example Alamar Blue stain or Trypan Blue stain) for cytotoxic changes.
Substance-induced cytotoxic or cytostatic changes in the HepG2.2.15 cells were detected, for example, under the light microscope as changes in cell morphology. Such substance-induced changes in the HepG2.2.15 cells compared with untreated cells were visible, for example, as cytolysis, vacuolation or altered cell morphology. […]
No cytotoxic changes were detectable at concentrations >10 μM of the compounds of the invention.

| SMILES | melting point | IC50 [1] | Tox50 [2] |
| --- | --- | --- | --- |
| COC(=O)C1=C(CN2CCCC2)NC(c2ncc(F)cc2F)=NC1c1ccc(F)cc1Br (stereo not drawn) | 161 to 162 °C | – | – |
| COC(=O)C1=C(CN2CCCC2)NC(c2ncc(F)cc2F)=NC1c1ccc(Cl)cc1Cl (stereo not drawn) | 168 to 170 °C | – | – |
| COC(=O)C1=C(CN2CCSC2)NC(c2ncc(F)cc2F)=NC1c1ccc(Cl)cc1Cl (stereo not drawn) | 189 to 191 °C | – | – |
| COC(=O)C1=C(CN2CCSCC2)NC(c2ncccc2F)=NC1c1ccc(Cl)cc1Cl (stereo not drawn) | 137 °C | – | – |
| COC(=O)C1=C(CN(CCO)Cc2ccccc2)NC(c2ncccc2F)=NC1c1ccc(F)cc1Br (stereo not drawn) | 121 °C | – | – |
| COC(=O)C1=C(CN2CCSC2)NC(c2nccs2)=NC1c1ccc(Cl)cc1Cl (stereo not drawn) | 169 to 170 °C | – | – |
| COC(=O)C1=C(Cn2ccnc2)NC(c2ncc(F)cc2F)=NC1c1ccc(F)cc1Br (stereo not drawn) | 123 to 126 °C | – | – |
| COC(=O)C1=C(CCN2CCSC2)NC(c2ncc(F)cc2F)=NC1c1ccc(F)cc1Cl (stereo not drawn) [Example 2, Methyl 4-(2-chloro-4-fluorophenyl)-2-(3,5-difluoro-2-pyridyl)-6-[2-(1,3-thiazolidin-3-yl)-ethyl]-1,4-dihydropyrimidine-5-carboxylate] | – | 400 nM | 38 µM |
| COC(=O)C1=C(CN2CCOCC2)NC(c2ncc(F)cc2F)=N[C@H]1c1ccc(F)cc1Cl [Example 5] | 178 °C | 2 nM | 40 µM |
| COC(=O)C1=C(CN2CCOCC2)NC(c2ncccc2F)=NC1c1ccc(Cl)cc1Cl (stereo not drawn) [Example 7] | 182 to 183 °C | 25 nM | 25 µM |
| COC(=O)C1=C(CN2CCOCC2)NC(c2ncc(F)cc2F)=NC1c1ccc(F)cc1Br (stereo not drawn) [Example 9] | 216 to 218 °C | 7 nM | 17 µM |
| COC(=O)C1=C(CN2CCSCC2)NC(c2ncc(F)cc2F)=N[C@H]1c1ccc(F)cc1Cl [Example 11] | – | 40 nM | >8 µM |
| COC(=O)C1=C(CN2CCSCC2)NC(c2ncc(F)cc2F)=NC1c1ccc(Cl)cc1Cl (stereo not drawn) [Example 15] | 166 to 168 °C | 50 nM | 3 µM |
| COC(=O)C1=C(CN2CCOCC2)NC(c2ncccc2F)=NC1c1ccc(F)cc1Br (stereo not drawn) [Example 24] | 156 to 158 °C | 20 nM | 80 µM |
| COC(=O)C1=C(CN2CCOCC2)NC(c2ncc(F)cc2F)=N[C@H]1c1ccc(F)cc1Br [Example 31] | 189 to 190 °C | 2 nM | 63 µM |
| COC(=O)C1=C(CN2CCOCC2)NC(c2ncccc2F)=NC1c1ccc(F)cc1Cl (stereo not drawn) [Example 34] | 161 to 163 °C | 9 nM | 60 µM |
| COC(=O)C1=C(CN2CCOCC2)NC(c2nccs2)=NC1c1ccc(Cl)cc1Cl (stereo not drawn) [Example 45] | 149 °C | 2 nM | 34 µM |

Further lines, with some results ahead:

| melting point | SMILES | IC50 [1] | Tox50 [2] |
| --- | --- | --- | --- |
| 225 to 227 °C | COC(=O)C1=C(CN2CCOCC2)NC(c2ncc(F)cc2F)=NC1c1ccc(Cl)cc1Cl (stereo not drawn) | – | – |
| 142 to 143 °C | CCN(C)CC1=C(C(=O)OC)C(c2ccc(Cl)cc2Cl)N=C(c2ncc(F)cc2F)N1 (stereo not drawn) | – | – |
| 128 to 131 °C | COC(=O)C1=C(CN2CCSCC2)NC(c2ncccc2F)=NC1c1ccc(F)cc1Br (stereo not drawn) | – | – |
| 175 °C | COC(=O)C1=C(CN2CCSC2)NC(c2ncccc2F)=NC1c1ccc(Cl)cc1Cl (stereo not drawn) | – | – |
| 172 to 173 °C | COC(=O)C1=C(CN2CCSC2)NC(c2ncccc2F)=NC1c1ccc(F)cc1Br (stereo not drawn) | – | – |
| 155 °C | COC(=O)C1=C(CN(CCO)CCO)NC(c2ncccc2F)=NC1c1ccc(Cl)cc1Cl (stereo not drawn) | – | – |
| 183 to 184 °C | COC(=O)C1=C(CN2CCSC2)NC(c2ncc(F)cc2F)=NC1c1ccc(F)cc1Br (stereo not drawn) | – | – |
| 173 to 174 °C | COC(=O)C1=C(CN2CCSCC2)NC(c2ncc(F)cc2F)=NC1c1ccc(F)cc1Br (stereo not drawn) | – | – |
| 144 to 145 °C | COC(=O)C1=C(CN(CCO)CCO)NC(c2ncc(F)cc2F)=NC1c1ccc(Cl)cc1Cl (stereo not drawn) | – | – |
| 114 to 116 °C | COC(=O)C1=C(CN(C)CCO)NC(c2ncc(F)cc2F)=NC1c1ccc(F)cc1Br (stereo not drawn) | – | – |
| 117 to 119 °C | COC(=O)C1=C(CN(C)CCO)NC(c2ncccc2F)=NC1c1ccc(F)cc1Cl (stereo not drawn) | – | – |
| 145 °C | COC(=O)C1=C(CN2CCSCC2)NC(c2ncccc2F)=NC1c1ccc(F)cc1Cl (stereo not drawn) | – | – |
| 163 to 164 °C | COC(=O)C1=C(CN2CCSC2)NC(c2ncccc2F)=NC1c1ccc(F)cc1Cl (stereo not drawn) | – | – |
| 119 to 120 °C | COC(=O)C1=C(CN(CCO)CCO)NC(c2ncccc2F)=NC1c1ccc(F)cc1Cl (stereo not drawn) | – | – |
| 135 °C | COC(=O)C1=C(CN(CCO)Cc2ccccc2)NC(c2ncc(F)cc2F)=NC1c1ccc(F)cc1Br (stereo not drawn) | – | – |
| 128 °C | COC(=O)C1=C(CN(CCO)Cc2ccccc2)NC(c2ncccc2F)=NC1c1ccc(F)cc1Cl (stereo not drawn) | – | – |
| 133 °C | COC(=O)C1=C(CN(CCO)CCO)NC(c2nccs2)=NC1c1ccc(Cl)cc1Cl (stereo not drawn) | – | – |
| 132 °C | COC(=O)C1=C(CN(C)CCO)NC(c2nccs2)=NC1c1ccc(Cl)cc1Cl (stereo not drawn) | – | – |
| 155 to 156 °C | COC(=O)C1=C(CN2CCCCC2)NC(c2ncccc2F)=NC1c1ccc(Cl)cc1Cl (stereo not drawn) | – | – |
